The text below walks through data of ChEMBL document CHEMBL1909046, “DrugMatrix in vitro pharmacology data”.

The target in data set [1] is T1, Neuropeptide Y receptor type 1 (Homo sapiens, UniProt P25929). Note: in other assays of this panel Not Active means under 50% inhibition at 10 µM.
T1 sequence (P25929 whole entry): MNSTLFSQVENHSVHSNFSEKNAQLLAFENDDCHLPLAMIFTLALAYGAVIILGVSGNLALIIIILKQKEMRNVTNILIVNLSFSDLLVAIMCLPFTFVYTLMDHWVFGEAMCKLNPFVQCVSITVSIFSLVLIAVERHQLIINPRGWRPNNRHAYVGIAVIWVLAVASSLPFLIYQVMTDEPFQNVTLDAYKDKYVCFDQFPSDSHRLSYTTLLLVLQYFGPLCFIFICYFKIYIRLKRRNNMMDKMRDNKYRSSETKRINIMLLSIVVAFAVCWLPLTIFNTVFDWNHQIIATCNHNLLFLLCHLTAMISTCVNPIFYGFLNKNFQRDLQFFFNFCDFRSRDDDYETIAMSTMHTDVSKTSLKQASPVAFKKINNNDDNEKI
The data set is classed as cell membranes, Membrane. Particulars: sk-n-mc.

The target in data set [2] is T2, 5-hydroxytryptamine receptor 2C (Homo sapiens, UniProt P28335).
T2 sequence (P28335 whole entry): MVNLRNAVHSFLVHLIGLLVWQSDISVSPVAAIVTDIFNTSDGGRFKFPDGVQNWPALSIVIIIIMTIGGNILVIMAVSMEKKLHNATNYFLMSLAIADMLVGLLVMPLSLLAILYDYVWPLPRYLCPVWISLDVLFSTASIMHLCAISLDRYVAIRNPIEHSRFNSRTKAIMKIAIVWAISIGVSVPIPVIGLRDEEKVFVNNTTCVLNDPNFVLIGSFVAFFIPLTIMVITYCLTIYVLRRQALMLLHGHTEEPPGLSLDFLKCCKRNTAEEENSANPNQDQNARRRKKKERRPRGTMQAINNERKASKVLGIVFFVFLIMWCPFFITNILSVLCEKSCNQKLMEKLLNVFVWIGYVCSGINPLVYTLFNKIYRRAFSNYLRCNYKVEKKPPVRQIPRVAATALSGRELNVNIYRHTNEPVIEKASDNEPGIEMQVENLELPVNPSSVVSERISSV
Put plainly: DRUGMATRIX: Serotonin (5-Hydroxytryptamine) 5-HT2C radioligand binding (ligand: [3H] Mesulergine). It counts as cell membranes, CHO-K1, Membrane. Particulars: Not Active = under 50% inhibition at 10 µM.

Another data set deals with Cytochrome P450 2D6 (Homo sapiens, UniProt P10635). Particulars: bti-tn-5b1-4.
For a further data set, the target named is Mu-type opioid receptor (Homo sapiens, UniProt P35372). Briefly: DRUGMATRIX: Opiate mu (OP3, MOP) radioligand binding (ligand: [3H] Diprenorphine). It counts as cell membranes, CHO-K1, Membrane. Particulars: cho-k1; Not Active = under 50% inhibition at 10 µM.
The target of a further data set is D(1A) dopamine receptor (Homo sapiens, UniProt P21728). Put plainly: DRUGMATRIX: Dopamine D1 radioligand binding (ligand: [3H] SCH-23390). Particulars: Not Active = under 50% inhibition at 10 µM. The data set is classed as cell membranes, CHO, Membrane.
Data set [3] has as its target T3, 5-hydroxytryptamine receptor 1A (Rattus norvegicus, UniProt P19327). Note: in other assays of this panel Not Active means under 50% inhibition at 10 µM.
T3 sequence (P19327 whole entry): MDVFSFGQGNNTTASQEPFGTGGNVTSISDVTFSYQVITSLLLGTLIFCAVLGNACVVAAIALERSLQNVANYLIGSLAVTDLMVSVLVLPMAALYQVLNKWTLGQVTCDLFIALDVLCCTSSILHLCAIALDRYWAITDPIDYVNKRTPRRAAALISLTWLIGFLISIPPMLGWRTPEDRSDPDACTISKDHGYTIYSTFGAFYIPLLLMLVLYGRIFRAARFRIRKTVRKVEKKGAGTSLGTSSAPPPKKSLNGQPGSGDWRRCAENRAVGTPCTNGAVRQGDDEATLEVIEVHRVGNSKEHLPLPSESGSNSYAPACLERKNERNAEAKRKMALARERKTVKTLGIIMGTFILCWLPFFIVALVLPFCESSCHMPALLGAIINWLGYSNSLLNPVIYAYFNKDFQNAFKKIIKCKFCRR
It counts as cell membranes, CHO-K1, Membrane. Particulars: for Ki: read-out: Ki.

Chain of Mu-type opioid receptor (P35372 whole entry): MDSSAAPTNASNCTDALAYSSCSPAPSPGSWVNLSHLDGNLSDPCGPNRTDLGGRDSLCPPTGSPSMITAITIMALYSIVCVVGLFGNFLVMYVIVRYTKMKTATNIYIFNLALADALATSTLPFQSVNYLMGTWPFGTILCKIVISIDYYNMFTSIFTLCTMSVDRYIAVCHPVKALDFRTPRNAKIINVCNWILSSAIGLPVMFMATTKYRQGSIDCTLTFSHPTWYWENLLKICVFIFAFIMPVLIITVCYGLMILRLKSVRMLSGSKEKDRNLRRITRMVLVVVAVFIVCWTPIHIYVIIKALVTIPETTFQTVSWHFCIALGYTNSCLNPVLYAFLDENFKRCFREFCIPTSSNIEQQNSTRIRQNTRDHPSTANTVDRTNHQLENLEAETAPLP
Chain of D(1A) dopamine receptor (P21728 whole entry): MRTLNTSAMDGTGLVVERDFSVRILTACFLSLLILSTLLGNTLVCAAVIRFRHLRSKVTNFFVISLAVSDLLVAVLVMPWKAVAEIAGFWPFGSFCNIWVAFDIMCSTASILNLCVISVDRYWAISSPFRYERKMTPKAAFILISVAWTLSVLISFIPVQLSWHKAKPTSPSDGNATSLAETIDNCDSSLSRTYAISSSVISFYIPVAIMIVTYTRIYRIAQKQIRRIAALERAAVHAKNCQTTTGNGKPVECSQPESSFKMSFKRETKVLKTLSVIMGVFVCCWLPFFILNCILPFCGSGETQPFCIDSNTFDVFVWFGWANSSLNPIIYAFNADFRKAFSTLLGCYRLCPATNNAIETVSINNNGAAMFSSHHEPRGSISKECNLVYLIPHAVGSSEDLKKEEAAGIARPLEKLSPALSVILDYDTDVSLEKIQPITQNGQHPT
Chain of Cytochrome P450 2D6 (P10635 whole entry): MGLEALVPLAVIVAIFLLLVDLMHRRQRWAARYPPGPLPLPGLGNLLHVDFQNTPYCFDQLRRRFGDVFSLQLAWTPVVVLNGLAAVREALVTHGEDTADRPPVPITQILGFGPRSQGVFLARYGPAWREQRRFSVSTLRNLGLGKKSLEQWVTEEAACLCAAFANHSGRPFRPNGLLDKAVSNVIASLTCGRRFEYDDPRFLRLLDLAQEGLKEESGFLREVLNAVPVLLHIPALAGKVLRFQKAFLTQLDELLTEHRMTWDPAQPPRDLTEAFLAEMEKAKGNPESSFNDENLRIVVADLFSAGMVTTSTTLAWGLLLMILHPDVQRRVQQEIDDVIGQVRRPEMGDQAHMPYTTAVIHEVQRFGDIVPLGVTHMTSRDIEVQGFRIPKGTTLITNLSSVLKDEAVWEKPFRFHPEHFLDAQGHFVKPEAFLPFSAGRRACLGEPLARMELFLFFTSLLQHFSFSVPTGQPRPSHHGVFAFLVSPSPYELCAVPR

Usually IC50 stands for the concentration that gives 50% inhibition. The term Ki denotes the equilibrium dissociation constant of an inhibitor or competing ligand from its target. As for `C[C@]12CCC(=O)C=C1CC[C@@H]1[C@@H]2CC[C@@]2(C)[C@H]1CC[C@]2(C)O` [METHYLTESTOSTERONE], the half-inhibitory concentration (IC50) entry (in data set [1]; in data set [2] (cho-k1); at Cytochrome P450 2D6; at Mu-type opioid receptor; on D(1A) dopamine receptor (cho); in data set [3] (cho-k1)) was “Not Active” throughout. The Ki result on Cytochrome P450 2D6 is recorded as “Not Active”.
`Nc1nc2c(ncn2COCCO)c(=O)[nH]1` [ACYCLOVIR]: the IC50 entry (in data set [1]; in data set [2] (cho-k1); against Cytochrome P450 2D6; on Mu-type opioid receptor; on D(1A) dopamine receptor (cho); in data set [3] (cho-k1)) was “Not Active” in each case. Besides, at Cytochrome P450 2D6, the Ki entry is on record as “Not Active”.
For the molecule `Cc1c(C)c2c(c(C)c1O)CC[C@@](C)(CCC[C@H](C)CCC[C@H](C)CCCC(C)C)O2` [ALPHA-TOCOPHEROL], the IC50 entry (in data set [1]; in data set [2] (cho-k1); against Cytochrome P450 2D6; at Mu-type opioid receptor; at D(1A) dopamine receptor (cho); in data set [3] (cho-k1)) was “Not Active” throughout. Besides, the Ki result on Cytochrome P450 2D6 is reported as “Not Active”.
For `CNCCCN1c2ccccc2CCc2ccccc21` [DESIPRAMINE], the IC50 result (in data set [1]; in data set [2] (cho-k1); against Cytochrome P450 2D6; on Mu-type opioid receptor; at D(1A) dopamine receptor (cho); in data set [3] (cho-k1)) was “Not Active” in each case. Also, on Cytochrome P450 2D6, the Ki result was “Not Active”.
`COc1cc2c3cc1Oc1cc(ccc1O)C[C@@H]1c4c(cc(OC)c(O)c4Oc4ccc(cc4)C[C@@H]3N(C)CC2)CC[N+]1(C)C.[Cl-]`: the IC50 entry (in data set [1]; in data set [2] (cho-k1); against Cytochrome P450 2D6; on Mu-type opioid receptor; at D(1A) dopamine receptor (cho); in data set [3] (cho-k1)) was “Not Active” in each case. On Cytochrome P450 2D6, the Ki result is recorded as “Not Active”.
Consider `C[C@H](CCC(=O)O)[C@H]1CC[C@H]2[C@@H]3[C@H](O)C[C@@H]4C[C@H](O)CC[C@]4(C)[C@H]3C[C@H](O)[C@]12C` [CHOLIC ACID], for which the IC50 entry (in data set [1]; in data set [2] (cho-k1); on Cytochrome P450 2D6; on Mu-type opioid receptor; on D(1A) dopamine receptor (cho); in data set [3] (cho-k1)) was “Not Active” throughout. In addition, the Ki result on Cytochrome P450 2D6 is reported as “Not Active”.
For `O=C(CCCN1CC=C(n2c(=O)[nH]c3ccccc32)CC1)c1ccc(F)cc1` [DROPERIDOL], the IC50 result in data set [1] is “Not Active”; in data set [2] (read-out: IC50) it was 0.454 µM; at Cytochrome P450 2D6, “Not Active”; at Mu-type opioid receptor, “Not Active”; at D(1A) dopamine receptor (read-out: IC50), 1.09 µM; in data set [3] (read-out: IC50), 0.242 µM. In addition, the Ki is 0.238 µM in data set [2] (read-out: Ki), “Not Active” at Cytochrome P450 2D6, 0.546 µM at D(1A) dopamine receptor (read-out: Ki) and 0.138 µM in data set [3].
Consider `CCCCc1nc(Cl)c(CO)n1Cc1ccc(-c2ccccc2-c2nnn[nH]2)cc1` [LOSARTAN], for which the IC50 result (in data set [1]; in data set [2] (cho-k1); at Cytochrome P450 2D6; on Mu-type opioid receptor; at D(1A) dopamine receptor (cho); in data set [3] (cho-k1)) was “Not Active” each time. Also, the Ki result on Cytochrome P450 2D6 was “Not Active”.
For the molecule `Cc1cc(C2CCCCC2)n(O)c(=O)c1` [CICLOPIROX], the IC50 result (in data set [1]; in data set [2] (cho-k1); against Cytochrome P450 2D6; on Mu-type opioid receptor; at D(1A) dopamine receptor (cho); in data set [3] (cho-k1)) was “Not Active” throughout. Besides, at Cytochrome P450 2D6, the Ki entry is on record as “Not Active”.
For `CC[C@@]1(O)C[C@H](O[C@H]2C[C@H](N(C)C)[C@H](O[C@H]3C[C@H](O)[C@H](O[C@H]4CCC(=O)[C@H](C)O4)[C@H](C)O3)[C@H](C)O2)c2c(cc3c(c2O)C(=O)c2c(O)cccc2C3=O)[C@H]1C(=O)OC` [ACLARUBICIN], the IC50 entry (in data set [1]; in data set [2] (cho-k1); against Cytochrome P450 2D6; at Mu-type opioid receptor; on D(1A) dopamine receptor (cho); in data set [3] (cho-k1)) was “Not Active” throughout. In addition, on Cytochrome P450 2D6, the Ki entry is on record as “Not Active”.
For `CC(=O)O[C@@]12CO[C@@H]1C[C@H](O)[C@@]1(C)C(=O)[C@H](O)C3=C(C)[C@@H](OC(=O)[C@H](O)[C@@H](NC(=O)OC(C)(C)C)c4ccccc4)C[C@@](O)([C@@H](OC(=O)c4ccccc4)[C@H]21)C3(C)C.O.O.O` [DOCETAXEL], the IC50 entry (in data set [1]; in data set [2] (cho-k1); on Cytochrome P450 2D6; on Mu-type opioid receptor; at D(1A) dopamine receptor (cho); in data set [3] (cho-k1)) was “Not Active” in each case. The Ki entry at Cytochrome P450 2D6 is recorded as “Not Active”.
Turning to `CNCCc1ccccn1` [BETAHISTINE], the IC50 entry (in data set [1]; in data set [2] (cho-k1); on Cytochrome P450 2D6; at Mu-type opioid receptor; on D(1A) dopamine receptor (cho); in data set [3] (cho-k1)) was “Not Active” throughout. Further, at Cytochrome P450 2D6, the inhibitory constant (Ki) result was “Not Active”.
For `Clc1cccc(Cl)c1NC1=NCCN1` [CLONIDINE], the IC50 entry is “Not Active” in data set [1]; “Not Active” in data set [2] (cho-k1); “Not Active” on Cytochrome P450 2D6; “Not Active” at Mu-type opioid receptor; “Not Active” at D(1A) dopamine receptor (cho); 5.36 µM in data set [3] (read-out: IC50). In addition, the figures for the Ki result (on Cytochrome P450 2D6; in data set [3]) were “Not Active” and 3.07 µM, respectively.
Consider `C[C@H](CS)C(=O)N1CCC[C@H]1C(=O)O` [CAPTOPRIL], for which the IC50 result (in data set [1]; in data set [2] (cho-k1); at Cytochrome P450 2D6; at Mu-type opioid receptor; on D(1A) dopamine receptor (cho); in data set [3] (cho-k1)) was “Not Active” in each case. Besides, the Ki result on Cytochrome P450 2D6 was “Not Active”.
Take `OC(Cn1cncn1)(Cn1cncn1)c1ccc(F)cc1F` [FLUCONAZOLE]: the IC50 result (in data set [1]; in data set [2] (cho-k1); on Cytochrome P450 2D6; on Mu-type opioid receptor; on D(1A) dopamine receptor (cho); in data set [3] (cho-k1)) was “Not Active” throughout. Besides, the Ki entry on Cytochrome P450 2D6 is “Not Active”.
Take `O=C1CC[C@@H](N2C(=O)c3ccccc3C2=O)C(=O)N1`: the IC50 result (in data set [1]; in data set [2] (cho-k1); on Cytochrome P450 2D6; at Mu-type opioid receptor; at D(1A) dopamine receptor (cho); in data set [3] (cho-k1)) was “Not Active” throughout. For the same molecule, the Ki entry on Cytochrome P450 2D6 was “Not Active”.
